US8420630B2 (Boehringer Ingelheim Pharma GmbH & Co. KG, priority 2001, dated 2013)

biological target: T1, CDK1/cyclinB1 (Homo sapiens, UniProt P06493); assay: Cyclin B1-CDK1 kinase inhibition test; assay type: biochemical; details: not given
T1 construct: made in house; host or cells: High Five insect cells (Trichoplusia ni), baculovirus coinfection
Procedure: CDK4) were cloned by standard methods using RT-PCR, and cloned into a transfer vector (cyclin in pAcG2T made by Pharmingen, CDKs in p2Bac made by Invitrogen) for the baculovirus system. […] After thawing the cells were resuspended in lysing buffer (50 mM HEPES pH 7.5, 10 mM MgCl2, 1 mM DTT, 5 μg/ml leupeptin, 5 μg/ml aprotinin, 100 μM NaF, 100 μM PMSF, 10 mM β-glycerolphosphate, 100 μM Na3VO4, 30 mM nitrophenylphosphate, 17.5 ml of lysing buffer per 10^8 cells) and incubated on ice for 30 min. […] Cyclin D1-CDK4 was purified by means of a GST-tag on cyclin D1 and then using glutathione beads (total protein about 0.2 mg/ml). All the kinase tests were carried out in 96-well microtitre plates (Greiner PS) in a final volume of 60 μl. […] As a negative control the kinase reaction was carried out in the absence of the substrate histone H1. As a positive control the kinase reaction was carried out in the absence of a test substance. As an internal control 30 μM and 300 μM (final concentration) of the kinase inhibitor olomoucin (Alexis) were used. […] The kinase reaction is started by the addition of 10 μl of ATP mix (0.045 mM ATP, 0.5 μCi ^33P-ATP in kinase buffer) and incubated for 30 min at 30° C. and 600 rpm in a shaking incubator. After incubation the plates were placed on ice and the proteins were precipitated by the addition of 125 μl of ice-cold 5% trichloroacetic acid. After 15 min on ice the precipitates were transferred onto Packard Unifilter 96 GF/B plates with the Packard Harvester System, and collected by vacuum filtration. The precipitates were washed 4 times with dist. H2O at ambient temperature. The filter plates were then dried at 60° C. and 50 μl of scintillation liquid were added to each well (Ultima Gold, Packard). The plate was sealed up with Sealing Tape and after 1 h measured in a scintillation measuring apparatus (Micro Beta made by Wallac).

T1 sequence (P06493 whole entry): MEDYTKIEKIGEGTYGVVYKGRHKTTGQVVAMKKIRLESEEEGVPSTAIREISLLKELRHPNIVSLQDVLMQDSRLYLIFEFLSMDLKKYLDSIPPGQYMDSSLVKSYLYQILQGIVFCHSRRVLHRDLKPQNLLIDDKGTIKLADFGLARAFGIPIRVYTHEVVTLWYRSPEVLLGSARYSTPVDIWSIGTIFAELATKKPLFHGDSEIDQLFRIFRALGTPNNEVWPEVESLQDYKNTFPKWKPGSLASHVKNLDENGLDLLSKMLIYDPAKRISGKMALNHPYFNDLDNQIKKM
T1 sequence (P14635 whole entry partner): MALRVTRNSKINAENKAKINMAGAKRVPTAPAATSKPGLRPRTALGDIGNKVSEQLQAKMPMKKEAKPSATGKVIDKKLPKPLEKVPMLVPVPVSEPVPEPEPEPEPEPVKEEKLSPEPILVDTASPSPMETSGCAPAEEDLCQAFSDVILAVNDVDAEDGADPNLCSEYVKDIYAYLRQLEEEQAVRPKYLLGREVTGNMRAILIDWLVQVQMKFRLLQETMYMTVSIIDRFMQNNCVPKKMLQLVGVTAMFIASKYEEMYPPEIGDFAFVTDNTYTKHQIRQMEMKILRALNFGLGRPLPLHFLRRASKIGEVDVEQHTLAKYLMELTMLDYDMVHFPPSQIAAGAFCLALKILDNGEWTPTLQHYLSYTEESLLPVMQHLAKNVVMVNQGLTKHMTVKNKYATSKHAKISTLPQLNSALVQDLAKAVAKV

Row | SMILES | IC50
1 | CN1CCC(CNc2nc(Nc3ccc(Cl)c(Cl)c3)ncc2C(F)(F)F)CC1 [Example 1(030)] | < 100 nM

same assay, conditions: CDK1 tests (Example 13); recombinant cyclin B1/CDK1, substrate histone H1; read-out: CDK1/cyclinB1 IC50 value

Row | SMILES | IC50
2 | O=C1CCCN1CCCNc1nc(Nc2ccc3ccccc3c2)ncc1C(F)(F)F [Example 1(003), 2-(2-naphthylamino)-4-(3-(2-oxo-pyrrolidin-1-yl)-propyl-1-amino)-5-trifluoromethyl-pyrimidine] | < 100 nM
3 | FC(F)(F)c1cnc(Nc2ccc(Cl)cc2)nc1N1CCc2[nH]cnc2C1 [Example 1(004), 2-(4-chlorophenylamino)-4-(1,4,6,7-tetrahydro-imidazo[4,5-c]pyridin-5-yl)-5-trifluoromethyl-pyrimidine] | < 100 nM
4 | FC(F)(F)c1cnc(Nc2cccc(Cl)c2)nc1N1CCc2[nH]cnc2C1 [Example 1(005), 2-(3-chlorophenylamino)-4-(1,4,6,7-tetrahydro-imidazo[4,5-c]pyridin-5-yl)-5-trifluoromethyl-pyrimidine] | < 100 nM
5 | NS(=O)(=O)c1ccc(Nc2ncc([N+](=O)[O-])c(NCCCN3CCCC3=O)n2)cc1 [Example 1(008), 2-(4-aminosulphonyl-phenylamino)-4-(3-(2-oxo-pyrrolidin-1-yl)-propyl-1-amino)-5-nitro-pyrimidine] | < 100 nM
6 | FC(F)(F)c1cnc(Nc2ccc(Cl)c(Cl)c2)nc1NCCCN1CC2C=CC1C2 (stereo not drawn) [Example 1(009), 2-(3,4-dichlorophenylamino)-4-(3-(2-aza-bicyclo[2.2.1]hept-5-en-2-yl)-propylamino)-5-trifluoro-methyl-pyrimidine] | < 100 nM
7 | O=[N+]([O-])c1cnc(Nc2ccc(Cl)cc2)nc1N1CCc2[nH]cnc2C1 [Example 1(010), 2-(4-chlorophenylamino)-4-(1,4,6,7-tetrahydro-imidazo[4,5-c]pyridin-5-yl)-5-nitro-pyrimidine] | < 100 nM
8 | O=C1CCCN1CCCNc1nc(Nc2ccc(Cl)cc2)ncc1C(F)(F)F [Example 1(011), 2-(4-chlorophenylamino)-4-(3-(2-oxo-pyrrolidin-1-yl)-propyl-1-amino)-5-trifluoromethyl-pyrimidine] | < 100 nM
9 | NCCCNc1nc(Nc2cccc(Cl)c2)ncc1C(F)(F)F [Example 1(012), 2-(3-chlorophenylamino)-4-(3-aminopropyl-amino)-5-trifluoromethyl-pyrimidine] | < 100 nM
10 | FC(F)(F)c1cnc(Nc2cc(Cl)cc(Cl)c2)nc1N1CCc2[nH]cnc2C1 [Example 1(014), 2-(3,5-dichlorophenylamino)-4-(1,4,6,7-tetrahydro-imidazo[4,5-c]pyridin-5-yl)-5-trifluoromethyl-pyrimidine] | < 100 nM
11 | O=[N+]([O-])c1cnc(Nc2ccc(F)c(Cl)c2)nc1N1CCc2[nH]cnc2C1 [Example 1(015), 2-(3-chloro-4-fluoro-phenylamino)-4-(1,4,6,7-tetrahydro-imidazo[4,5-c]pyridin-5-yl)-5-nitro-pyrimidine] | < 100 nM
12 | O=[N+]([O-])c1ccccc1CNc1nc(Nc2ccc(Cl)c(Cl)c2)ncc1C(F)(F)F [Example 1(016), 2-(3,4-dichloro-phenylamino)-4-(2-nitrobenzylamino)-5-trifluoromethyl-pyrimidine] | < 100 nM
13 | O=C(O)c1ccc(Nc2ncc(C(F)(F)F)c(N3CCc4[nH]cnc4C3)n2)cc1 [Example 1(017), 2-(4-carboxy-phenylamino)-4-(1,4,6,7-tetrahydro-imidazo[4,5-c]pyridin-5-yl)-5-trifluoromethyl-pyrimidine] | < 100 nM
14 | CN(C)[C@H]1CC[C@H](Nc2nc(Nc3ccc(C(=O)O)cc3)ncc2[N+](=O)[O-])CC1 [Example 1(018), 2-(4-carboxy-phenylamino)-4-(trans-4-dimethylamino-cyclohexylamino)-5-nitro-pyrimidine] | < 100 nM
15 | FC(F)(F)c1cnc(Nc2ccc(Br)cc2)nc1N1CCc2[nH]cnc2C1 [Example 1(019), 2-(4-bromo-phenylamino)-4-(1,4,6,7-tetrahydro-imidazo[4,5-c]pyridin-5-yl)-5-trifluoromethyl-pyrimidine] | < 100 nM
16 | NC1CCCC(Nc2nc(Nc3cc(Cl)cc(Cl)c3)ncc2C(F)(F)F)C1 (stereo not drawn) [Example 1(020), 2-(3,5-dichloro-phenylamino)-4-(3-amino-cyclohexylamino)-5-trifluoromethyl-pyrimidine] | < 100 nM
17 | O=C(O)c1ccc(Nc2ncc(C(F)(F)F)c(NCCCN3CCCC3=O)n2)cc1 [Example 1(021), 2-(4-carboxy-phenylamino)-4-(3-(2-oxo-pyrrolidin-1-yl)-propyl-1-amino)-5-trifluoromethyl-pyrimidine] | < 100 nM
18 | NC(=O)c1cccc(Nc2ncc([N+](=O)[O-])c(N3CCc4[nH]cnc4C3)n2)c1 [Example 1(022), 2-(3-aminocarbonyl-phenylamino)-4-(1,4,6,7-tetrahydro-imidazo[4,5-c]pyridin-5-yl)-5-nitro-pyrimidine] | < 100 nM
19 | O=C(O)CCc1ccc(Nc2ncc(C(F)(F)F)c(N3CCc4[nH]cnc4C3)n2)cc1 [Example 1(023), 2-(4-(2-carboxy-1-ethyl-)phenylamino)-4-(1,4,6,7-tetrahydro-imidazo[4,5-c]pyridin-5-yl)-5-trifluoromethyl-pyrimidine] | < 100 nM

Further lines, results first:

Row | IC50 | SMILES
20 | < 100 nM | NCCCNc1nc(Nc2cccc(Br)c2)ncc1C(F)(F)F [Example 1(024), 2-(3-bromo-phenylamino)-4-(3-amino-propylamino)-5-trifluoromethyl-pyrimidine]
21 | < 100 nM | NC(=O)CCNc1nc(Nc2ccc(Cl)c(Cl)c2)ncc1C(F)(F)F [Example 1(025), 2-(3,4-dichloro-phenylamino)-4-(2-aminocarbonyl-1-ethylamino)-5-trifluoromethyl-pyrimidine]
22 | < 100 nM | O=C(Nc1ccccc1)c1ccc(Nc2ncc([N+](=O)[O-])c(N3CCc4[nH]cnc4C3)n2)cc1 [Example 1(026), 2-(4-phenylaminocarbonyl-phenylamino)-4-(1,4,6,7-tetrahydro-imidazo[4,5-c]pyridin-5-yl)-5-nitro-pyrimidine]
23 | < 100 nM | O=[N+]([O-])c1ccc(Nc2ncc([N+](=O)[O-])c(N3CCc4[nH]cnc4C3)n2)cc1 [Example 1(027), 2-(4-nitro-phenylamino)-4-(1,4,6,7-tetrahydro-imidazo[4,5-c]pyridin-5-yl)-5-nitro-pyrimidine]
24 | < 100 nM | O=[N+]([O-])c1cnc(Nc2ccc(Cl)cc2)nc1N1CCCC(CCCCN2CCCC2)C1 (stereo not drawn) [Example 1(028), 2-(4-chloro-phenylamino)-4-(3-(4-(pyrrolidin-1-yl)butyl)-piperidin-1-yl)-5-nitro-pyrimidine]
25 | < 100 nM | O=C(O)c1ccc(Nc2ncc([N+](=O)[O-])c(N3CCc4[nH]cnc4C3)n2)cc1 [Example 1(029), 2-(4-carboxy-phenylamino)-4-(1,4,6,7-tetrahydro-imidazo[4,5-c]pyridin-5-yl)-5-nitro-pyrimidine]
26 | < 100 nM | O=C1CCCN1CCCNc1nc(Nc2ccccc2)ncc1C(F)(F)F [Example 1(031), 2-phenylamino-4-(3-(2-oxo-pyrrolidin-1-yl)-propyl-1-amino)-5-trifluoromethyl-pyrimidine]
27 | < 100 nM | N#Cc1ccc(Nc2ncc([N+](=O)[O-])c(N3CCc4[nH]cnc4C3)n2)cc1 [Example 1(032), 2-(4-cyano-phenylamino)-4-(1,4,6,7-tetrahydro-imidazo[4,5-c]pyridin-5-yl)-5-nitro-pyrimidine]
28 | < 100 nM | NCC1CCC(CNc2nc(Nc3ccccc3)ncc2C(F)(F)F)CC1 (stereo not drawn) [Example 1(033), 2-phenylamino-4-(4-aminomethyl-cyclohexylmethylamino)-5-trifluoromethyl-pyrimidine]
29 | < 100 nM | NC1CCCC(Nc2nc(Nc3ccc(Cl)cc3)ncc2[N+](=O)[O-])C1 (stereo not drawn) [Example 1(034), 2-(4-chloro-phenylamino)-4-(3-amino-cyclohexylamino)-5-nitro-pyrimidine]
30 | < 100 nM | NCCCNc1nc(Nc2ccc(Cl)c(Cl)c2)ncc1C(F)(F)F [Example 1(035), 2-(3,4-dichloro-phenylamino)-4-(3-amino-propylamino)-5-trifluoromethyl-pyrimidine]
31 | < 100 nM | O[C@H]1CC[C@@H](Nc2nc(Nc3ccc(Cl)c(Cl)c3)ncc2C(F)(F)F)CC1 [Example 1(037), 2-(3,4-dichloro-phenylamino)-4-(cis-4-hydroxy-cyclohexylamino)-5-trifluoromethyl-pyrimidine]
32 | < 100 nM | FC(F)(F)c1cnc(Nc2cccc(Br)c2)nc1N1CCc2[nH]cnc2C1 [Example 1(038), 2-(3-bromo-phenylamino)-4-(1,4,6,7-tetrahydro-imidazo[4,5-c]pyridin-5-yl)-5-trifluoromethyl-pyrimidine]
33 | < 100 nM | NC1CCCC(Nc2nc(Nc3ccc4ccccc4c3)ncc2C(F)(F)F)C1 (stereo not drawn) [Example 1(039), 2-(2-naphthylamino)-4-(3-amino-cyclohexylamino)-5-trifluoromethyl-pyrimidine]
